The values below come from patent publication US20060120975A1, “Oral care composition comprising a phenolic compound and antioxidant vitamins and vitamin derivatives” (Colgate-Palmolive Company, priority 2004, published 2006).

In this assay the test system is IL-1β stimulated PGE2 production. Nature of the assay: IL-1β stimulated PGE2 production cell culture assay, an inflammation model. Format: cell-based. The note with it: vitamin or vitamin derivative added to triclosan. An excerpt: The present invention is in part derived from a finding that, upon addition of an antioxidant vitamin or vitamin derivative to an antibacterial phenolic compound having anti-inflammatory activity, in particular a halogenated diphenylether compound having such activity, the anti-inflammatory activity can be enhanced.
With `CCCCCCCCCCCCCCCC(=O)OC[C@H](O)[C@H]1OC(=O)C(O)=C1O` [Ascorbyl palmitate, ascorbyl palmitate], the “enhancing the anti-inflammatory activity of triclosan” value is listed as “less dramatic enhancement”.

As for `Cc1c(C)c2c(c(C)c1O)CCC(C)(C(=O)O)O2` (centres unmarked) [TROLOX®], the “enhancing the anti-inflammatory activity of triclosan” value is on record as “especially effective”.

Regarding `O=C1O[C@H]([C@@H](O)CO)C(O)=C1O` [ascorbic acid], the “enhancing the anti-inflammatory activity of triclosan” value was “especially effective”.

As to `CC(=O)Oc1c(C)c(C)c2c(c1C)CCC(C)(CCC[C@H](C)CCC[C@H](C)CCCC(C)C)O2` (some centres unmarked) [vitamin E acetate], the “enhancing the anti-inflammatory activity of triclosan” value is listed as “especially effective”.

With vitamin E, the “enhancing the anti-inflammatory activity of triclosan” value is listed as “less dramatic enhancement”.
